Data from ChEMBL document CHEMBL4043103, “Design, synthesis, and biological evaluation of some novel indolizine derivatives as dual cyclooxygenase and lipoxygenase inhibitor for anti-inflammatory activity” (Bioorg Med Chem, 2017).

What was measured:
[1] = n-Octanol-water partition coefficient, log P of the compound by shake-flask method; type: physicochemical
[2] = Solubility of the compound in water by shake-flask method; type: physicochemical; settings: buffer
[3] = Solubility of the compound in methanol by shake-flask method; type: physicochemical
[4] = Solubility of the compound in ethanol by shake-flask method; type: physicochemical
[5] = Solubility of the compound in chloroform by shake-flask method; type: physicochemical
[6] = Solubility of the compound in DMSO by shake-flask method; type: physicochemical
[7] = Solubility of the compound in acetone by shake-flask method; type: physicochemical
Rattus norvegicus [8] = organism: Rattus norvegicus; experiment: animal or person; settings: Wistar, po, read-out: INH
Rattus norvegicus [9] = organism: Rattus norvegicus; experiment: animal or person; settings: Wistar, po, read-out: INH; remark: listed apart in the source
Rattus norvegicus [10] = organism: Rattus norvegicus; experiment: animal or person; settings: Wistar, po, read-out: INH; remark: listed apart in the source
Rattus norvegicus [11] = organism: Rattus norvegicus; experiment: animal or person; settings: Wistar, po, read-out: INH; remark: listed apart in the source
[12] = Inhibition of soybean lipoxygenase preincubated for 5 mins followed by linoleic acid substrate addition measured after 20 mins by spectrophotometric method; set-up: species or system Glycine max
[13] = biological target: T1, Prostaglandin G/H synthase 1 (Ovis aries, UniProt P05979)
T1 sequence (P05979 whole entry): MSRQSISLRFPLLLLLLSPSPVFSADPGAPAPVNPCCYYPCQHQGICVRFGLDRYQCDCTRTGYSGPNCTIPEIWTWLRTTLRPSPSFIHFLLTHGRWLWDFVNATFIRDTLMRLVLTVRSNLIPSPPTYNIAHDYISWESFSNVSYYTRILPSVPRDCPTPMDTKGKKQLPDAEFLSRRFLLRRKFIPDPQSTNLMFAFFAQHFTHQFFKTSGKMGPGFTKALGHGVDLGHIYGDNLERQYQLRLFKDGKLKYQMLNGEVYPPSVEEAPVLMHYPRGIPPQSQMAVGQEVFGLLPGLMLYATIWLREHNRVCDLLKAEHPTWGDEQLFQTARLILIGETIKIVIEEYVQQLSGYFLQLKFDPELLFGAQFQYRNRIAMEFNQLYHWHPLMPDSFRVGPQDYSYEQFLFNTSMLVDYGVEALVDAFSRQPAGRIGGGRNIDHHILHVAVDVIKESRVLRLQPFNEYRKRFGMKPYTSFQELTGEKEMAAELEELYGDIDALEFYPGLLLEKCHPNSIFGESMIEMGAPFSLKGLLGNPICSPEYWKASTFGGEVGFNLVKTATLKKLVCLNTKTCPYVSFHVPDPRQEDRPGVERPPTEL
Description: Inhibition of ovine COX-1 preincubated for 5 mins followed by arachidonic acid substrate addition by colorimetric enzyme immunoassay

RAW264.7 = experiment: Anti-inflammatory activity in mouse RAW264.7 cells assessed as reduction in LPS-induced NO production by Griess assay; type: functional, cell-based
Rattus norvegicus [14] = organism: Rattus norvegicus; experiment: Gastrointestinal toxicity in adjuvant-induced Wistar rat arthritis model assessed as ulcer index treated for 7 days measured on day 21 post arthritis induction; settings: in vivo, 168 h
[15] = biological target: T2, Prostaglandin G/H synthase 2 (Homo sapiens, UniProt P35354)
T2 sequence (P35354 whole entry): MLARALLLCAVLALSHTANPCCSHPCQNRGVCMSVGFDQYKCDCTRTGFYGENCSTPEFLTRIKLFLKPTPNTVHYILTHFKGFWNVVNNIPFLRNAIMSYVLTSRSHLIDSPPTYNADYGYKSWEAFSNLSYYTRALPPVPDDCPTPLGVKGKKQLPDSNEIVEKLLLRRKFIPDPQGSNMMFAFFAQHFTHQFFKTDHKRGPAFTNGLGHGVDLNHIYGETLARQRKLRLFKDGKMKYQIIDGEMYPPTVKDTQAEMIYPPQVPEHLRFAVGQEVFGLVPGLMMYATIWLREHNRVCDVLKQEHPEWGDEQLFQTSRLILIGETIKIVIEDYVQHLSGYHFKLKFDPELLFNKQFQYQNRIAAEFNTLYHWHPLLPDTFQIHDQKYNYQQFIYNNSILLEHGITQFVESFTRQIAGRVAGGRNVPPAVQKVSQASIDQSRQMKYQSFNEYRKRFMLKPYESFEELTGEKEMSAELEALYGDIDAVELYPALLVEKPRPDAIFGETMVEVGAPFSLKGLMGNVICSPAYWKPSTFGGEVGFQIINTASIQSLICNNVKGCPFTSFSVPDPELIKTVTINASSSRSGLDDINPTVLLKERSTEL
Description: Inhibition of human COX-2 preincubated for 5 mins followed by arachidonic acid substrate addition by colorimetric enzyme immunoassay

[16] = Non noncompetitive inhibition of soybean lipoxygenase preincubated for 5 mins followed by substrate addition measured after 20 mins by Lineweaver-Burk plot analysis; set-up: species or system Glycine max
[17] = biological target: T2, Prostaglandin G/H synthase 2; experiment: Non noncompetitive inhibition of human COX-2 preincubated for 5 mins followed by arachidonic acid substrate addition by Lineweaver-Burk plot analysis
Rattus norvegicus [18] = experiment: Anti inflammatory activity in carrageenan-induced Wistar rat paw edema model assessed as inhibition of left hind paw edema size at 10 mg/kg, po pretreated for 1 hr followed by carrageenan challenge measured after 2 hrs by plethysmometry method (reference value: 0%); type: functional
Rattus norvegicus [19] = experiment: Anti inflammatory activity in carrageenan-induced Wistar rat paw edema model assessed as inhibition of left hind paw edema size at 10 mg/kg, po pretreated for 1 hr followed by carrageenan challenge measured after 4 hrs by plethysmometry method (reference value: 0%); type: functional
Rattus norvegicus [20] = experiment: Anti inflammatory activity in carrageenan-induced Wistar rat paw edema model assessed as inhibition of left hind paw edema size at 10 mg/kg, po pretreated for 1 hr followed by carrageenan challenge measured after 6 hrs by plethysmometry method (reference value: 0%); type: functional
Rattus norvegicus [21] = experiment: Anti inflammatory activity in arachidonic acid-induced Wistar rat paw edema model assessed as inhibition of right hind paw edema thickness at 10 mg/kg, po pretreated for 30 mins followed by arachidonic acid challenge measured after 1 hr (reference value: 0%); type: functional

SMILES | logP [1] | solubility [2] | solubility [3] | solubility [4] | solubility [5] | solubility [6] | solubility [7] | inhibition in vivo at 10 mg/kg (Rattus norvegicus [8]) | inhibition in vivo at 10 mg/kg (Rattus norvegicus [9]) | inhibition in vivo at 10 mg/kg (Rattus norvegicus [10]) | inhibition in vivo at 10 mg/kg (Rattus norvegicus [11]) | UI (Rattus norvegicus [14]) | other results
CC1(C)Cc2c(-c3ccccc3)c(-c3ccc(Cl)cc3)c(CC(=O)O)n2C1 [LICOFELONE] |  |  |  |  |  |  |  |  |  |  |  |  | IC50 [12]: 0.21 µM; IC50 [13]: 0.16 µM
NCc1c(-c2ccc(C(F)(F)F)cc2)c(C(=O)O)c2ccccn12 | 2.06 | Soluble | Soluble | Soluble | Insoluble | Soluble | Soluble | 42.8% | 62.8% | 67.7% | 40% |  | 
Cc1ccc2n1[C@@H]1[C@H]3O[C@]([C@H](C)O)(C=C2)[C@H]1c1cc([C@H]2C=Cc4ccc(C)n4[C@@H]2C)cn1[C@@H]3C |  |  |  |  |  |  |  |  |  |  |  |  | IC50 (RAW264.7): 5.31 µM
O=C(O)Cc1ccccc1Nc1c(Cl)cccc1Cl [DICLOFENAC] |  |  |  |  |  |  |  |  |  |  |  | 46 | inhibition in vivo at 10 mg/kg (Rattus norvegicus [18]): 74.6%; inhibition in vivo at 10 mg/kg (Rattus norvegicus [19]): 91.6%; inhibition in vivo at 10 mg/kg (Rattus norvegicus [20]): 90.9%
Cc1ccc(-c2cc(C(F)(F)F)nn2-c2ccc(S(N)(=O)=O)cc2)cc1 [CELECOXIB] |  |  |  |  |  |  |  |  |  |  |  | 53 | 
CCCCc1c(C(=O)O)c2ccccn2c1CN | 2.07 | Soluble | Soluble | Soluble | Insoluble | Soluble | Soluble | 23.8% | 24.4% | 23.9% | 15.4% |  | 
CC(c1cc2ccccc2s1)N(O)C(N)=O (stereo not given) [ZILEUTON] |  |  |  |  |  |  |  |  |  |  |  | 52 | inhibition in vivo at 10 mg/kg (Rattus norvegicus [21]): 72.3%; IC50 [12]: 3.43 µM

Further lines, with some results ahead:

logP [1] | solubility [2] | solubility [3] | solubility [4] | solubility [5] | solubility [6] | solubility [7] | SMILES | inhibition in vivo at 10 mg/kg (Rattus norvegicus [8]) | inhibition in vivo at 10 mg/kg (Rattus norvegicus [9]) | inhibition in vivo at 10 mg/kg (Rattus norvegicus [10]) | inhibition in vivo at 10 mg/kg (Rattus norvegicus [11]) | UI (Rattus norvegicus [14]) | other results
1.55 | Soluble | Soluble | Soluble | Insoluble | Soluble | Soluble | COc1cc(-c2c(C(=O)O)c3ccccn3c2CN)ccc1O | 50.8% | 63.9% | 59.4% | 36.9% |  | 
0.72 | Soluble | Soluble | Soluble | Insoluble | Soluble | Soluble | Cc1c(C(=O)O)c2ccccn2c1CN | 41.3% | 44.2% | 38.5% | 23.1% |  | 
1.85 | Soluble | Soluble | Soluble | Insoluble | Soluble | Soluble | NCc1c(-c2ccccc2)c(C(=O)O)c2ccccn12 | 68.2% | 90.5% | 88.6% | 66.2% | 10 | IC50 [15]: 14.9 µM; IC50 [12]: 13.1 µM; Ki [16]: 0.72 µM; Ki [17]: 0.92 µM; IC50 [13]: > 50 µM
1.45 | Soluble | Soluble | Soluble | Insoluble | Soluble | Soluble | CCc1c(C(=O)O)c2ccccn2c1CN | 30.2% | 32.5% | 34.3% | 20.2% |  | 
2.12 | Soluble | Soluble | Soluble | Insoluble | Soluble | Soluble | NCc1c(-c2ccc(F)cc2)c(C(=O)O)c2ccccn12 | 69.8% | 89.5% | 86.4% | 61.5% |  | 
2.07 | Soluble | Soluble | Soluble | Insoluble | Soluble | Soluble | NCc1c(-c2ccc3c(c2)OCO3)c(C(=O)O)c2ccccn12 | 61.9% | 74.4% | 78.1% | 23.1% |  | 
